Test results taken from US7863313B2, “Methods for the treatment of inflammatory diseases” (Cortical PTY LTD, priority 2003, dated 2011).
Marks after values point to notes of the source that are not given here.

What was measured:
[1] = system: IL-1 induced COX-2 expression; assay: Combination of MIF-antagonist with glucocorticoid: IL-1 induced fibroblast COX-2 expression; assay type: cell-based, human
Protocol: (§1) S112 human dermal fibroblasts were propagated in RPMI/10% foetal calf serum (FCS). Prior to experimentation, cells were seeded at 2×10^5 cells/ml in RPMI/0.1% BSA for 18 hours. Cells were treated with compound at 1-100 μM and 30 minutes later with recombinant human IL-1 (0.1 ng/ml). After 6 hours, cells were collected and intracellular COX-2 protein determined by permeabilisation flow cytometry, as described by Sampey et al ^(18). Cells permeabilised with 0.2% saponin were sequentially labelled with a mouse anti-human COX-2 monoclonal antibody and with sheep-anti-mouse F(ab)2 fragment labelled with fluoroscein isothiocyanate. Cellular fluorescence was determined using a flow cytometer. At least 5000 events were counted for each reading, each of which was performed in duplicate, and the results expressed in mean fluorescence intensity (MFI) after subtraction of negative control-labelled cell fluorescence.
The above in vitro assay (Biological Example 2) for analysing the effect of MIF antagonists on IL-1 induced COX-2 expression was performed using 2-(2-hydroxyethoxy)-2-(4′-hydroxy-3′-methylphenyl)-1,3-dioxolane (Compound 1) (50 μM), dexamethasone (1 nM) or a combination of dexamethasone (1 nM) and Compound 1 (50 μM). COX-2 expression was expressed as the mean fluorescence intensity (MFI) as measured by flow cytometry, after deduction of the MFI for control-labelled samples, as described by Sampey et al. ^(18).

[2] = system: S112 human dermal fibroblasts; assay: Cytotoxicity: apoptosis by annexin V and propidium iodide flow cytometry; assay type: cell-based; settings: 50 μM versus control-treated cells; FIG. 7
Text: A valuable characteristic of a therapeutic material is a lack of toxicity. The compounds of formula (I) may have low toxicity towards cells. To examine this in vitro, the ability of 2-(2-hydroxyethoxy)-2-(4-hydroxy-3-methylphenyl)-1,3-dioxolane (Compound 1) to induce apoptosis (“programmed cell death) was investigated. A lack of cytotoxicity would be evidenced by the finding of equivalent proportions of apoptotic and viable cells in control- and compound-treated cells.
To examine the cytotoxicity of compounds of formula (I), S112 human dermal fibroblasts were exposed to a therapeutic concentration (50 μM) of 2-(2-hydroxyethoxy)-2-(4-hydroxy-3-methylphenyl)-1,3-dioxolane (Compound 1) or vehicle (control) and analysed for apoptosis by flow cytometric analysis of annexin V and propidium iodide staining, as described by Leech et al. ^(19). Toxicity was assessed by analysis of apoptosis using flow cytometric detection of cell surface Annexin V binding and propidium iodide staining. At least 5000 events were analysed for each experiment. Cells positive for both Annexin V and propidium iodide were designated as apoptotic and cells negative for both Annexin V and propidium iodide were designated as viable. Results are expressed as the percentage (%) of cells with each of these labels.

[3] = system: IL-1 induced COX-2 expression; assay: MIF-dependent IL-1 induced fibroblast cyclooxygenase-2 expression (flow cytometry); assay type: cell-based, human; settings: for Mean % inhibition COX2 expression: S112 fibroblasts, IL-1 0.1 ng/ml, 6 h
Text: The activity of the compounds of formula (I) were further studied in a bioassay utilising MIF-dependent activation of human dermal fibroblasts. Sampey et al have shown that induction of the expression of cyclooxygenase-2 (COX-2) by the cytokine interleukin 1 (IL-1) is dependent upon the presence of MIF, i.e. can be prevented using specific anti-MIF monoclonal antibody ^(17). IL-1-induced COX-2 expression is therefore a MIF-dependent event.
as §1, with “Cells were treated with compound at 1-100 μM and 30 minutes later with recombinant human IL-1 (0.1 ng/ml).” left out
In Table 2 and FIG. 2, the effect of each concentration of 2-(2-hydroxyethoxy)-2-(4-hydroxy-3-methylphenyl)-1,3-dioxolane (Compound 1) was determined by subtracting the IL-1+ compound-treated cell MFI from the IL-1-treated cell MFI, and expressed as % inhibition.

[4] = system: MIF-induced proliferation of S112 human fibroblasts; assay: MIF-induced human fibroblast proliferation (3H-thymidine incorporation); assay type: cell-based
Protocol: The activity of a compound of formula (I) was studied in a bioassay utilising MIF-induced proliferation of human dermal fibroblasts. […] S112 human dermal fibroblasts were propagated in RPMI/10% foetal calf serum (FCS). Prior to experimentation, cells were seeded at 10^5 cells/ml in RPMI/0.1% BSA for 18 hours. Cells were treated with recombinant human macrophage migration inhibitory factor (MIF) 50 ng/ml and/or a compound of the invention at a concentration of 1 nM. The compound was combined with MIF at time point −30 minutes, prior to adding to cell culture at time point zero. At time point zero, culture medium was replaced with RPMI/10% FCS and treatments administered. At time point 30 hours, cells were pulsed with 1 μCi ^3H-thymidine. At time point 48 hours, cells were harvested using a semi-automated cell harvester. The radioactivity incorporated into DNA was determined by liquid scintillation counting, with results expressed as ^3H-thymidine incorporation.

[5] = system: antigen-specific T cell activation; assay: MIF-dependent antigen-specific T cell activation (splenocytes, 3H-thymidine); assay type: cell-based, mouse; settings: 100 nM-10 μM; mBSA 10 μg/ml; spleen cells of immunized C57Bl/6 mice; P<0.05; FIG. 5
Text: The activity of compounds of formula (I) was further studied in a bioassay utilising MIF-dependent activation of murine T cell activation. The activation of T lymphocytes in response to exposure to a recall antigen is known to be dependent on the presence of MIF, i.e. can be prevented using specific anti-MIF monoclonal antibody^(7). Antigen-induced T cell activation is therefore a MIF-dependent phenomenon.
Splenocytes were obtained by Hank's buffered saline flushing of spleens obtained from C57Bl/6 mice previously immunized with methylated bovine serum albumin (mBSA, Sigma Chemical Co., Castle Hill, Australia). Mice were immunized on day 0 with 200 μg mBSA emulsified in 0.2 ml of Freund's complete adjuvant (FCA) injected subcutaneously into the flank skin. On day 7, the mice received 100 μg mBSA/0.1 ml FCA by intradermal injection at the base of the tail. Spleens were removed on day 14 after first immunisation and a single cell suspension was prepared in DMEM containing 5% FCS and 0.05% 2-mercaptoethanol. […] The T cell proliferation response was determined by measuring the amount of [^3H] thymidine incorporation during the final 18 hr. The cells were harvested and radioactivity incorporation into the DNA was measured with a Wallac 1409 liquid scintillation counter (Pharmacia, Turku, Finland).

Row | Compound | Mean COX-2 expression (MFI) ([1]; IL-1 + dexamethasone 1 nM + Compound 1 50 μM, control 0.7400, IL-1 49.37) | enhancement of dexamethasone inhibition of IL-1-induced COX-2 expression ([1]; dexamethasone 1 nM + Compound 1 50 μM versus dexamethasone alone, P<0.05) | apoptotic cell numbers (Annexin V and propidium iodide positive) [2] | viable cell numbers (Annexin V and propidium iodide negative) [2] | Mean % inhibition COX2 expression ([3]; 0.01 μM) [%] | Mean % inhibition COX2 expression ([3]; 0.1 μM) [%] | Mean % inhibition COX2 expression ([3]; 1 μM) | Mean % inhibition COX2 expression ([3]; 10 μM) | reduction in IL-1 induced COX-2 expression ([3]; 50 μM, P<0.01, FIG. 2) | Mean % inhibition COX2 expression ([3]; 50 μM) | dose dependence of reduction in COX-2 expression ([3]; Table 2 and FIG. 3) | Mean cpm (3H-thymidine incorporation) ([4]; S112 cells, MIF 50 ng/ml + compound 1 nM, untreated 3245, MIF alone 4415, n=9) | inhibition of MIF-induced S112 human fibroblast proliferation ([4]; compound 1 nM pre-incubated with MIF, P<0.05) | inhibition of IL-induced COX-2 expression, MFI ([3]; IL-1+cpd2 versus IL-1, P<0.05, FIG. 4) | reduction in antigen-specific T cell activation [5]
1 | Cc1cc(C2(OCCO)OCCO2)ccc1O [Compound 1, 2-(2-hydroxyethoxy)-2-(4-hydroxy-3-methylphenyl)-1,3-dioxolane] | 6.013* MFI | significantly greater inhibition | No significant increase | no significant decrease | 10.5 | 13.2 | 15.6* % | 19.5* % | significant reduction | 31.4* % | dose-dependent reduction | 2994* cpm | significantly inhibited |  | 
2 | OCCOC1(c2ccc(O)cc2)OCCO1 [Compound 2, 2-(2-hydroxyethoxy)-2-(4-hydroxyphenyl)-1,3-dioxolane] |  |  |  |  |  |  |  |  |  |  |  |  |  | Significant inhibition | significant dose-dependent reduction
